Patent US9017935B2, “HIV-1 latency model for high throughput screening” (priority 2005, dated 2015)

What was measured:
latent HIV-1 proviruses = settings: background, literature; cited from earlier work
[1] = recently reported (ref. 43); cited from earlier work
[2] = tested on: latent HIV-1 vector provirus in 24ST1NLESG cells; test: HIV-1 p24gag ELISA, 24ST1NLESG cells; type: cell-based; settings: TNF-α 50 ng/ml
Method: FIG. 5. HIV-1 Gag p24 protein production in 24ST1NLESG cells. HIV-1 Gag p24 protein was detected in the cultured media of untreated and TNF-α (50ng/ml) treated 24ST1NLESG cells (10^6/ml) two and four days post-plating. Results shown are the means and standard deviations of one or two representative experiments.
To further characterize the 24ST1NLESG cell line, p24^gag expression was monitored using the ELISA after treatment with TNF-α (50 ng/ml) (FIG. 5).
HIV gag transfer assay. 1×10^6 SupT1 infected cells (latent mass population and clonal cell lines) were plated followed by harvesting supernatant one week later. Samples were collected both from TNF-α activated and untreated cells. They were passed through a 0.45-μm pore-size filter and used to inoculate […] 10^6 parental SupT1 cells for 24 h. The cells were washed twice with PBS and resuspended in fresh media. The same process was repeated once again with conditioned media from the targeted parental cells, and a new batch of SupT1 cells was treated. Passing the conditioned media over two sets of virgin SupT1 cells helps to assure that the carryover of gag protein in the samples will be eliminated and only the de novo synthesized protein, if present, will be assessed. […] Samples were considered virus free when the p24^gag concentration was below the detection threshold, which for this assay, was determined to be 10 pg/ml.

[3] = tested on: latent HIV-1 vector provirus in 29ST1NLESG cells; test: SEAP assay for late gene expression, 29ST1NLESG cells; type: cell-based; settings: TNF-α 50 ng/ml, day 2 post treatment
Method: (§1) FIG. 3. Reactivation of early and late viral gene expression in three clonal cell lines by TNF-α. (A) 19ST1NLESG, 24ST1NLESG, and 29ST1NLESG cells (10^6/ml) were exposed to TNF-α (50 ng/ml) and four days after gfp expressing cells were analyzed by flow cytometry. The left panels show the histograms of unstimulated cells, and the right panels represent the histogram analysis of TNF-α (50 ng/ml) stimulated cells. Numbers show the percentages of gfp positive cells. (B) SEAP in the cultured media of untreated and TNF-α (50 ng/ml) stimulated 19ST1NLESG, 24ST1NLESG, 29ST1NLESG cells two and four days post plating. (C) Fold induction of SEAP expression in 19ST1NLESG, 24ST1NLESG, and 29ST1NLESG cells (10^6/m1) after stimulation with TNF-α (50 ng/ml). Readings were taken on the second and fourth days post activation. […]
(§2) In order to provide a well characterized system to identify molecules that can activate latent virus, SupT1 cell clones harboring latent vector provirus were isolated. […] Even at 0.1 ng/ml of TNF-α induction could be detected yielding SEAP activity 4-fold above background (FIG. 4).
(§3) 1×10^6 or 1×10^5 cells from the clonal cell lines or mass populations of infected cells were resuspended in RPMI media with or without the activator. […] The relative light units (RLU) were measured with a tube luminometer (Turner Designs 20/20) or a MLX Microtiter Plate Luminometer (DYNEX Technologies).

[4] = tested on: latent HIV-1 vector provirus in NLE-S-G infected SupT1 cells; test: Flow cytometry of GFP positive cells, mass population of NLE-S-G infected SupT1 cells; type: cell-based; settings: mass population three weeks post-infection (2% before treatment), TNF-α 100 ng/ml, analyzed forty-eight hours after exposure
Description: FIG. 2. Infection of SupT1 cells by NLE^-S-G vector virus. (A) The upper panels depict uninfected SupT1 cells. The lower panels show SupT1 cells that have been infected with NLE-S-G virus. The phase contrast (left panels) and fluorescence microscopy (right panels) images were captured five days post-infection. (B) Flow cytometric analysis of SupT1 cells either mock infected or infected with NLE^−S-G analyzed at day five post-infection or three weeks post-infection. […] Three weeks post infection mass population of unsorted NLE^−S-G infected SupT1 cells (10^6 cells/ml) were stimulated with TNF-α (100 ng/ml). Cells were analyzed forty-eight hours after exposure. Numbers represent the percentages of gfp positive cells. (C) SEAP activity in the conditioned media from NLE^−S-G infected unsorted SupT1 cells (10^6 cells/ml) four days, three weeks and one month post-infection. Three weeks post-infection, a sample (10^6 cells/ml) of a mass population of NLE^−S-G infected SupT1 cells was treated with TNF-α (100 ng/ml) and analyzed four days post activation. RLU, relative light units.
The infected mass population of cells was next tested for its ability to establish a latent infection. The infected mass population of SupT1 cells was maintained in culture for one month. […] This was also reflected in the reduction of SEAP expression by the third week (FIG. 2C). […]

[5] = tested on: latent HIV-1 vector provirus in NLE-S-G infected SupT1 cells; test: SEAP assay, mass population of NLE-S-G infected SupT1 cells; type: cell-based; settings: mass population three weeks post-infection, TNF-α 100 ng/ml, four days post activation
Description: The infected mass population of cells was next tested for its ability to establish a latent infection. The infected mass population of SupT1 cells was maintained in culture for one month. […] This was also reflected in the reduction of SEAP expression by the third week (FIG. 2C). It was shown in previous studies that tumor necrosis factor (TNF)-α could activate HIV-1 virus production from latently infected cell lines (30).
1×10^6 or 1×10^5 cells from the clonal cell lines or mass populations of infected cells were resuspended in RPMI media with or without the activator. At the indicated day post plating, samples were taken to determine the activity of SEAP. The assay was performed using a SEAP Detection kit (BD Biosciences, Palo Alto, Calif.) according to the manufacturer's protocol. The relative light units (RLU) were measured with a tube luminometer (Turner Designs 20/20) or a MLX Microtiter Plate Luminometer (DYNEX Technologies).

[6] = tested on: latent HIV-1 vector provirus in 19ST1NLESG cells; test: SEAP assay for late gene expression, 19ST1NLESG cells; type: cell-based; settings: TNF-α 50 ng/ml, day 2 post treatment
Method: as §1, §2, §3

[7] = tested on: latent HIV-1 vector provirus in 24ST1NLESG cells; test: Quantitative real-time RT-PCR of HIV-1 mRNA, 24ST1NLESG cells; type: cell-based; settings: TNF-α 50 ng/ml, day 4 post-stimulation, normalized to β-actin
Method: FIG. 6. Real-time RT-PCR for relative quantification of HIV-1 mRNA levels in 24ST1NLESG cells before and after activation from latency. Quantitative real-time RT-PCR was performed with RNA isolated from 24ST1NLESG cells (10^6/ml) following one and four days after stimulation with TNF-α (50 ng/ml). cDNA was synthesized with polyT oligo, and the reactions were completed with primers to viral (Rev2) and cellular (β-actin) genes with SYBR green detection. The ‘Delta-delta method’ (PE Applied Biosystems) was used to compare the relative expression results (ΔCT) between the values obtained from the RNA samples from stimulated cells to the values obtained from RNA isolated from untreated cells. The results were normalized to the expression of β-actin. […]
The consistent reactivation of viral genes as evidenced by the pattern of expression of the three markers assayed correlated with an increase in the relative levels of total viral mRNA. The relative amount of total HIV-1 mRNA was determined by quantitative real-time PCR using primers to the second exon of rev (Rev2). […] Therefore, only the level of mature polyadenylated RNA was detected.
The relative ratio of viral RNA after stimulation of 24ST1NLESG latent cells was determined as described in the Examples using the relative RNA results obtained for the unstimulated 24ST1NLESG cells as a control. β-actin was used as a reference gene. […]

[8] = tested on: latent HIV-1 vector provirus in 24ST1NLESG cells; test: SEAP assay for late gene expression, 24ST1NLESG cells; type: cell-based; settings: for fold induction in SEAP activity: TNF-α 50 ng/ml
Method: FIG. 3. Reactivation of early and late viral gene expression in three clonal cell lines by TNF-α. (A) 19ST1NLESG, 24ST1NLESG, and 29ST1NLESG cells (10^6/ml) were exposed to TNF-α (50 ng/ml) and four days after gfp expressing cells were analyzed by flow cytometry. The left panels show the histograms of unstimulated cells, and the right panels represent the histogram analysis of TNF-α (50 ng/ml) stimulated cells. Numbers show the percentages of gfp positive cells. (B) SEAP in the cultured media of untreated and TNF-α (50 ng/ml) stimulated 19ST1NLESG, 24ST1NLESG, 29ST1NLESG cells two and four days post plating. (C) Fold induction of SEAP expression in 19ST1NLESG, 24ST1NLESG, and 29ST1NLESG cells (10^6/m1) after stimulation with TNF-α (50 ng/ml). Readings were taken on the second and fourth days post activation. Results shown are the means and standard deviations of one of three representative experiments.
FIG. 4. SEAP activation in 24ST1NLESG cells at different concentrations of TNF-α. SEAP synthesis by 24ST1NLESG cells (10^6/ml) four days post-activation with various concentrations (0.1 to 100 ng/ml) of TNF-α. The numbers above the bars show the fold induction of enzymatic activity calculated as ratio between the average value of RLU per sample induced cells compared to the mean RLU value of uninduced cells. RLU, relative light units. Results shown are the means and standard deviations of one of three representative experiments.
as §2, §3

| Molecule | activation of latent virus (latent HIV-1 proviruses) | cytotoxicity [1] | concentration of p24gag above background ([2]; 2 days post-activation) [fold] | concentration of p24gag above background ([2]; 4 days post-activation) [fold] | fold induction in SEAP activity [3] [fold] | number of GFP-positive cells after treatment [4] [%] | increase in SEAP activity [5] [fold] | fold induction in SEAP activity [6] | increase in relative ratio of viral RNA [7] | SEAP activity above background ([8]; 0.1 ng/ml TNF-α, four days post-activation) [fold] | fold induction in SEAP activity ([8]; day 2 post treatment) [fold] | fold induction in SEAP activity ([8]; day 4) |
| --- | --- | --- | --- | --- | --- | --- | --- | --- | --- | --- | --- | --- |
| CCCCCCCCCCCCCC(=O)O[C@@H]1[C@@H](C)[C@@]2(O)[C@@H](C=C(CO)C[C@]3(O)C(=O)C(C)=C[C@@H]23)[C@@H]2C(C)(C)[C@]12OC(C)=O [PMA, phorbol 12-myristate 13-acetate] | could stimulate latent virus |  |  |  |  |  |  |  |  |  |  |  |
| CC(=O)O[C@@]12C[C@@H](C)[C@@]3(O)[C@@H](C=C(CO)C[C@]4(O)C(=O)C(C)=C[C@@H]34)[C@@H]1C2(C)C [prostratin] | able to activate latent virus | significant cytotoxicity |  |  |  |  |  |  |  |  |  |  |
| TNF-α |  |  | 50 | 100 | ~150 | 19 | 400 | approximately 50 fold | at least 100 fold | 4 | ~400 | approximately 600 fold |
